These results are taken from patent US6376497B1, “Antifungal azole derivatives having a fluorinated vinyl group and process for preparing same” (Korea Research Institute of Chemical Technology, priority 1999, dated 2002).

Values after ≈ are worked out from the molar mass of the structure shown.

Holding throughout (test): In vitro antifungal activity, microbroth dilution MIC
Holding throughout (type): cell-based

Test [1] concerns Aspergillus niger A. 16404. Particulars: A. niger A. 16404, RPMI-1640, 35° C., 4 to 48 hours. The essentials: (§1)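 Broth microdilution adapted from NCCLS M27, in RPMI-1640 with 0.165 M MOPS, pH 7.0. Yeast or mould inoculum at 2×10^3 CFU/ml was mixed 1:1 with DMSO-derived compound solutions (200 to 0.10 μg/ml before mixing) and incubated at 35 °C for 4 to 48 h. MIC was the concentration showing no growth.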

The test system of test [2] is Trichophyton mentagrophytes A. 9129. Particulars: T. mentagrophytes A. 9129, RPMI-1640, 35° C., 4 to 48 hours. The essentials: as §1
The subject of test [3] is Candida tropicalis A. 13803. Particulars: C. tropicalis A. 13803, RPMI-1640, 35° C., 4 to 48 hours. The essentials:
as §1

For test [4], the system named is Candida albicans IFO. 1385. As to conditions: C. albicans IFO. 1385, RPMI-1640, 35° C., 4 to 48 hours. The essentials:
as §1

In test [5] the test system is Candida krusei K. 11655. Particulars: C. krusei K. 11655, RPMI-1640, 35° C., 4 to 48 hours. The gist of the method: as §1
For test [6], the system named is Trichophyton mentagrophytes B. 32663. As to conditions: T. mentagrophytes B. 32663, RPMI-1640, 35° C., 4 to 48 hours. The gist of the method: as §1
Test [7] has as its system Candida parapsitosis A. 7330. As to conditions: C. parapsitosis A. 7330, RPMI-1640, 35° C., 4 to 48 hours. The essentials:
as §1

For test [8], the system named is Torulopsis glabrata B. 16205. As to conditions: T. glabrata B. 16205, RPMI-1640, 35° C., 4 to 48 hours. The essentials: as §1
Test [9] concerns Aspergillus furnigatus B. 19119. Particulars: A furnigatus B. 19119, RPMI-1640, 35° C., 4 to 48 hours. The essentials:
as §1

Test [10] deals with Candida albicans A. 10231. As to conditions: C. albicans A. 10231, RPMI-1640, 35° C., 4 to 48 hours. The essentials: as §1
Test [11] deals with Candida pseudotropicalis K. 11658. Particulars: C. pseudotropicalis K. 11658, RPMI-1640, 35° C., 4 to 48 hours. The gist of the method: as §1
For test [12], the system named is Cryptococcus neoformans A. 34144. Particulars: Cry. neoformans A. 34144, RPMI-1640, 35° C., 4 to 48 hours. The gist of the method:
as §1

For test [13], the system named is Cryptococcus neoformans B. 42419. Particulars: Cry. neoformans B. 42419, RPMI-1640, 35° C., 4 to 48 hours. The essentials: as §1
For test [14], the system named is Candida albicans C1-2. Particulars: C. albicans C1-2, RPMI-1640, 35° C., 4 to 48 hours. The gist of the method: as §1
The test system of test [15] is Cryptococcus neoformans IFM. 40092. Particulars: Cry. neoformans IFM. 40092, RPMI-1640, 35° C., 4 to 48 hours. The gist of the method: as §1

For the compound `FC(=Cc1ccc(Cl)cc1)OCC1COC(Cn2ccnc2)(c2ccc(Cl)cc2Cl)O1` (stereo not drawn) [Ex. 14], the “Minimal inhibitory concentration (MIC)” value in [1] came out at 6.25 µg/mL (≈ 12.9 µM); in test [2], 1.56 µg/mL (≈ 3.22 µM); in [3], 12.5 µg/mL (≈ 25.8 µM); in [4], 0.39 µg/mL (≈ 0.806 µM); in test [5], 6.25 µg/mL (≈ 12.9 µM); in [6], 0.78 µg/mL (≈ 1.61 µM). Besides, the “Minimal inhibitory concentration (MIC)” value in test [7] worked out at 12.5 µg/mL (≈ 25.8 µM); in test [8], 6.25 µg/mL (≈ 12.9 µM); in test [9], 6.25 µg/mL (≈ 12.9 µM); in [10] it was 6.25 µg/mL (≈ 12.9 µM); in [11] it was 3.13 µg/mL (≈ 6.47 µM); in [12], 0.78 µg/mL (≈ 1.61 µM). Moreover, the “Minimal inhibitory concentration (MIC)” value in test [13] is 0.78 µg/mL (≈ 1.61 µM); in [14] it was 12.5 µg/mL (≈ 25.8 µM); in test [15] it was 0.39 µg/mL (≈ 0.806 µM).
Take `FC(=Cc1cccc(F)c1)OCC1COC(Cn2ccnc2)(c2ccc(Cl)cc2Cl)O1` (stereo not drawn) [Ex. 15]: the “Minimal inhibitory concentration (MIC)” value in [1] is 1.56 µg/mL (≈ 3.34 µM); in [2] it was 0.39 µg/mL (≈ 0.835 µM); in [3], 25.0 µg/mL (≈ 53.5 µM); in test [4], “≦0.10 μg/ml”; in test [5], 6.25 µg/mL (≈ 13.4 µM); in test [6] it was “≦0.10 μg/ml”. Besides, the “Minimal inhibitory concentration (MIC)” value in test [7] stood at 6.26 µg/mL (≈ 13.4 µM); in [8] it was 3.13 µg/mL (≈ 6.7 µM); in [9] it was 0.78 µg/mL (≈ 1.67 µM); in test [10], 6.25 µg/mL (≈ 13.4 µM); in test [11] it was 3.13 µg/mL (≈ 6.7 µM); in test [12], 0.20 µg/mL (≈ 0.428 µM). Besides, the “Minimal inhibitory concentration (MIC)” value in test [13] is 0.20 µg/mL (≈ 0.428 µM); in test [14], 3.13 µg/mL (≈ 6.7 µM); in [15], “≦0.10 μg/ml”.
Turning to `FC(=Cc1ccc(F)cc1)OCC1COC(Cn2ccnc2)(c2ccc(Cl)cc2Cl)O1` (stereo not drawn) [Ex. 16], the “Minimal inhibitory concentration (MIC)” value in test [1] was 3.13 µg/mL (≈ 6.7 µM); in test [2], 1.56 µg/mL (≈ 3.34 µM); in test [3], 25.0 µg/mL (≈ 53.5 µM); in [4], 0.78 µg/mL (≈ 1.67 µM); in [5], 6.25 µg/mL (≈ 13.4 µM); in test [6], 1.56 µg/mL (≈ 3.34 µM). For the same compound, the “Minimal inhibitory concentration (MIC)” value in test [7] worked out at 6.25 µg/mL (≈ 13.4 µM); in test [8] it was 6.25 µg/mL (≈ 13.4 µM); in test [9], 3.13 µg/mL (≈ 6.7 µM); in [10], 12.5 µg/mL (≈ 26.7 µM); in test [11], 3.13 µg/mL (≈ 6.7 µM); in [12] it was 1.56 µg/mL (≈ 3.34 µM). Further, the “Minimal inhibitory concentration (MIC)” value in [13] was found to be 1.56 µg/mL (≈ 3.34 µM); in [14] it was 6.25 µg/mL (≈ 13.4 µM); in test [15], 0.39 µg/mL (≈ 0.835 µM).
On to `Cc1cc(C=C(F)OCC2COC(Cn3ccnc3)(c3ccc(Cl)cc3Cl)O2)ccc1Cl` (stereo not drawn) [Ex. 17], for which the “Minimal inhibitory concentration (MIC)” value in test [1] is 12.5 µg/mL (≈ 25.1 µM); in [2], 12.5 µg/mL (≈ 25.1 µM); in test [3] it was 12.5 µg/mL (≈ 25.1 µM); in [4], 0.78 µg/mL (≈ 1.57 µM); in test [5], 12.5 µg/mL (≈ 25.1 µM); in [6], 3.13 µg/mL (≈ 6.29 µM). For the same compound, the “Minimal inhibitory concentration (MIC)” value in test [7] is 50.0 µg/mL (≈ 100 µM); in [8], 6.25 µg/mL (≈ 12.6 µM); in test [9] it was 6.25 µg/mL (≈ 12.6 µM); in test [10], 12.5 µg/mL (≈ 25.1 µM); in test [11] it was 6.25 µg/mL (≈ 12.6 µM); in test [12] it was 1.56 µg/mL (≈ 3.13 µM). Also, the figures for the “Minimal inhibitory concentration (MIC)” value in [13], in test [14] and in [15] were 1.56 µg/mL (≈ 3.13 µM), 12.5 µg/mL (≈ 25.1 µM) and 0.20 µg/mL (≈ 0.402 µM), respectively.
